Where a name gives a salt, the structure may show the parent alone. Read-outs that look alike come from different tables or passages of the source.
How the values were obtained:
[1] = test system: Capan-1 human pancreatic cancer tumors; settings: for T − C: delay to reach 1 g
Source text: Balb, athymic Nu/Nu male mice, from Harlan (Italy), were maintained in agreement with the European Communities Council Directive no. 86/609/EEC concerning the protection of animals used for experimental or other scientific purposes, in cages with paper filter cover, food and bedding sterilized and acidified water. Fragments of Capan-1 human pancreatic cancer tumors were implanted subcutaneously. Mice bearing a palpable tumor (100-200 mm^3) were selected and randomized into control and treated groups. Each group included seven animals. The treatment started one day after randomization. Compound of formula (I) was administered by oral route as a methocel suspension at the doses of 100 mg/kg daily or twice a day for the indicated times.
Compound (39) was administered by oral route at the dose of 100 mg/kg twice a day for ten consecutive days (days 1 to 10). […] Tumor growth and body weight were measured every 3 days. Tumor growth was assessed by caliper. The two diameters were recorded and the tumor weight was calculated according to the following formula: length (mm)×width^2/2. […] This delay (T−C value) was defined as the difference of time (in days) required for the treatment group (T) and the control group (C) tumors to reach a predetermined size (1 g). Toxicity was evaluated on the basis of body weight reduction and animal survival rate.

PARP-1 FL = PARP-1 FL (Homo sapiens, UniProt P09874); assay: Fluorescence polarization probe displacement assay; assay type: binding; settings: for DC50: half maximal displacement concentration
Experimental: (§1) Affinity of the tested compounds and their selectivity with respect to the different PARP isoforms of interest was quantified in a displacement assay.
(§2) In all of the experiments, the polarization signal was measured using a Saphire2 plate reader (Tecan). Data analysis was performed using Dynafit software. In particular, titration data were fitted to the following equilibria: Enzyme+probe <==> Complex Enzyme-probe, while displacement data were fitted to the following equilibria: Enzyme+probe <==> Complex Enzyme-probe, Enzyme+Compound <==> Complex Enzyme-Compound, whereby binding of probe and compound on the enzyme are mutually exclusive (pure competitive mechanism). Displacement data were also fitted using Excel spreadsheet (Microsoft Inc. Seattle, USA) to a four parameter logistic model (4PL), or Hill-Slope model to calculate DC50s where the DC50 value represents the compound concentration at which the polarization signal is diminished by 50% compared to untreated controls.
(§3) In agreement, affinity binding constants (KD) were determined by fitting with a pure competitive mechanism. KD values are the average of three independent experiments.

PARP-2 FL = PARP-2 FL (Homo sapiens, UniProt Q9UGN5); assay: Fluorescence polarization probe displacement assay; assay type: binding; settings: for DC50: compound P1 as the probe
Sequence of PARP-2 FL (Q9UGN5 whole entry): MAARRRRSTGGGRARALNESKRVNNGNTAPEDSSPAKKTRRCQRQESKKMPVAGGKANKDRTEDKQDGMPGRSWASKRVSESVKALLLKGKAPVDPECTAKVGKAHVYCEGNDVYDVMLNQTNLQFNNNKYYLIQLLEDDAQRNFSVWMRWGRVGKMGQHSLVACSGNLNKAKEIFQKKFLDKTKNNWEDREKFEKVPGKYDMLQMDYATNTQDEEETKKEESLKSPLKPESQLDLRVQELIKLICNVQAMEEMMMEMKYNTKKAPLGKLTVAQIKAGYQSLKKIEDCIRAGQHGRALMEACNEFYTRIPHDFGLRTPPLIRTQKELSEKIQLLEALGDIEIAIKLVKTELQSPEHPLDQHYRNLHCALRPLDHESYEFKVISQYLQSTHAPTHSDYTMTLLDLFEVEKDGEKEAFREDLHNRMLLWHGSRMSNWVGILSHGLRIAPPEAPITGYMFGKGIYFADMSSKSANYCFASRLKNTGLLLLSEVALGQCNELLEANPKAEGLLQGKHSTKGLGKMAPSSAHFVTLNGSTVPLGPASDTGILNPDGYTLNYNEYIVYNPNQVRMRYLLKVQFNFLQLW
Experimental: as §1, §2, §3

PARP-3 FL = molecular target: T1, PARP-3 FL (Homo sapiens, UniProt Q9Y6F1); assay: Fluorescence polarization probe displacement assay; assay type: binding; settings: compound P1 as the probe
T1 sequence (Q9Y6F1 1-533): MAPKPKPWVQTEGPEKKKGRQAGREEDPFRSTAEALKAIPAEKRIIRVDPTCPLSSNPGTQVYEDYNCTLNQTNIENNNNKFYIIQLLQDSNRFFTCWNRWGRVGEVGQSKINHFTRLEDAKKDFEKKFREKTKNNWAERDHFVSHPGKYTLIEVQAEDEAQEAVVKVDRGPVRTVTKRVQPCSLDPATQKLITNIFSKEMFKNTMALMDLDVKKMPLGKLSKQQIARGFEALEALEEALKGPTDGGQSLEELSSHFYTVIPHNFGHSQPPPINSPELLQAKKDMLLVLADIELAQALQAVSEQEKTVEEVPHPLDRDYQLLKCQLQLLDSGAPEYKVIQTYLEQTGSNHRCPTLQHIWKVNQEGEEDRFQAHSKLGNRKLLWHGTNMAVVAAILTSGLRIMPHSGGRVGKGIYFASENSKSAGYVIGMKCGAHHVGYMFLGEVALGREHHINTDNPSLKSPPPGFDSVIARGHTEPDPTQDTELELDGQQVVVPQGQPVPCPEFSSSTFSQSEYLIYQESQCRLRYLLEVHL
Experimental: as §1, §2, §3

[2] = test system: hydrogen peroxide induced PAR formation in HeLa cells; assay: Cellular PAR assay (inhibition of hydrogen peroxide induced PAR formation); assay type: cell-based; settings: Homo sapiens, 0.1 mM hydrogen peroxide 15 min
Experimental: Compounds potencies were evaluated by measuring the inhibition of poly (ADP-ribose) (PAR) chains formation as a marker for PARP-1 inhibition.
Cellular activity of PARP-1 inhibitors was assessed by measuring the inhibition of the hydrogen peroxide induced PAR formation in HeLa cells (ECACC). Cellular PAR levels were measured by immunocytochemistry and quantified using an ArrayScan vTi instrument (Cellomics Thermo Scientific).
Studies were performed as follows: 6000 cells/well were seeded in 96 well plates (Perkin Elmer) in MEM/10% FCS and incubated for 24 hours at 37° C., 5% carbon dioxide. Test compounds were then added at the required concentration for 30′. […] Concentration curves were prepared in MEM/10% FCS from compound stocks in DMSO and final DMSO concentration was 0.002% (v/v). Duplicate wells for each concentration point were prepared with a typical highest compound concentration of 20 μM and serial dilution 1:3. […] Non-specific binding sites were blocked by incubating wells for 30 min in PBS containing 5% (w/v) FBS 0.05% tween20. […] After washing further 3 times in PBS, cellular PAR immunoreactivity was assessed using the ArrayScan vTi instrument, with a Zeiss 10×0.5 N.A. objective, and applying the Cytotoxicity.V3 algorithm (Cellomics/Thermo Fisher) with a XF100 filter. At least 10 fields, corresponding to at least 900 cells, were read for each well.
The following formula is used: IC50=Bottom+(Top−Bottom)/(1+10^((Log EC50−X))); X is the logarithm of concentration. IC50 is the response; IC50 starts at Bottom and goes to Top with a sigmoid shape.

[3] = Pharmacokinetics and oral bioavailability in the mouse; assay type: in vivo; settings: for F on AUC: 10 mg/kg, ratio of oral to IV dose-normalized plasma AUC; for clearance / Vd / AUC / half-life: male, Balb Nu/Nu, plasma, mean value; for clearance / Vd: 10 mg/kg intravenous bolus; for clearance: read-out: CL(IV bolus); for Vd: read-out: Vdss (IV bolus); for AUC / half-life: 10 mg/kg oral; for half-life: read-out: T½ (oral) (converted)
Experimental: The compounds were formulated in 10% tween 80/dextrose for intravenous bolus administration while oral administrations were performed using the compounds formulated in 0.5% methylcellulose. A single administration at the dose of 10 mg/kg was given and three male animals for each route were used. […] Plasma samples were prepared by plasma proteins precipitation adding 200 µl of methanol to 10 µl of plasma in a 96 well plate. […] The supernatant was considered as final extract and injected onto the LC-MS-MS system (HPLC system: Hewlett Packard 1100 series using Atlantis HILIC Silica 50*2.1 mm 5.0 μM analytical column; MS instrument: Perkin Elmer SCIEX API 2000 and ionization performed with Turbo Ion Spray in positive ion mode). Lower limit of quantification is 5.0 ng/ml, upper limit of quantification is 10000 ng/ml. […] Non-compartmental method (linear trapezoidal rule and linear regression analysis of natural log-transformed plasma concentrations vs. time data) was used. After intravenous dosing, C0 was set equal to C0.083, Absolute bioavailability (F) was calculated from the ratio of average oral to IV (intravenous) dose-normalized plasma AUC (area under curve) values.

[4] = test system: Capan-1 human pancreatic cancer tumors; assay: In vivo efficacy as single agent, Capan-1 BRCA-2 mutated mouse model; settings: oral; for Toxicity: body weight reduction and survival
Source text: Each group included seven animals. The treatment started one day after randomization.

[5] = test system: ovarian cancer patients with confirmed BRCA-1 mutations; settings: preliminary phase I data; cited from earlier work
[6] = temozolomide alone, oral 50 mg/kg once a day, days 3, 4, 5, 6 and 7
[7] = 100 mg/kg, days 1-10 twice a day
[8] = Compound (39) alone, oral 100 mg/kg twice a day, days 1 to 10
[9] = 150 mg/kg, days 1-14 twice a day
[10] = 100 mg/kg, days 1-20 once a day

Sequence of PARP-1 FL (P09874 whole entry): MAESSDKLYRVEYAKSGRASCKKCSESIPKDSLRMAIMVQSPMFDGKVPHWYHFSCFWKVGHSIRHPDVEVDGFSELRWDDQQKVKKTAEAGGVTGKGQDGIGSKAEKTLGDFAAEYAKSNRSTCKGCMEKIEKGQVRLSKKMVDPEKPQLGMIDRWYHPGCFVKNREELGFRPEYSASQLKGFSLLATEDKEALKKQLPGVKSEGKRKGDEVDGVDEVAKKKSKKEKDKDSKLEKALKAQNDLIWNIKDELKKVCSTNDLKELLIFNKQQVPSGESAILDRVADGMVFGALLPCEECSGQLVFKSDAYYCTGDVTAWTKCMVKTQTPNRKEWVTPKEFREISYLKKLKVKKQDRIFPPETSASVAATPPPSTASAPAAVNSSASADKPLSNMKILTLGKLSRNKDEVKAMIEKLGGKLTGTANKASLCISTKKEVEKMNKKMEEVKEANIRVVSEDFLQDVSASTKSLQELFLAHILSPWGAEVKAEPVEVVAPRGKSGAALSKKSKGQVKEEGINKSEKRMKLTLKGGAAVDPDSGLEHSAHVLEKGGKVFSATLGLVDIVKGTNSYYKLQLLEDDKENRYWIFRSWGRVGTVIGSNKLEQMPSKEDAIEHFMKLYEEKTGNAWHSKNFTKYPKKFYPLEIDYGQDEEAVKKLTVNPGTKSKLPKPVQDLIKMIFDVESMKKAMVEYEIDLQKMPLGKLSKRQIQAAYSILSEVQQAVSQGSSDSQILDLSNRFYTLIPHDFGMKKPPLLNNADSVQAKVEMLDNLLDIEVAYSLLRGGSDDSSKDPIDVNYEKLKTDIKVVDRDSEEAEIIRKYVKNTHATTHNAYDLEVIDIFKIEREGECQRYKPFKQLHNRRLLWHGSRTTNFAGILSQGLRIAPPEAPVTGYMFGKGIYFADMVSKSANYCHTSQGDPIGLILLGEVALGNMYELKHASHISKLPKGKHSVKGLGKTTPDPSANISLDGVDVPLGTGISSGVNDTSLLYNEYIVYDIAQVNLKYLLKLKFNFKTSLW

SMILES | Kd (PARP-1 FL) [µM] | DC50 (PARP-1 FL) [µM] | Kd (PARP-2 FL) [µM] | DC50 (PARP-2 FL) [µM] | DC50 (PARP-3 FL) [µM] | IC50 [2] [µM] | F on AUC [3] [%] | clearance [3] [mL/min/kg] | Vd [3] [L/kg] | AUC [3] [µM·h] | half-life [3] [h] | also measured
Cn1nnc2c(C(N)=O)ncn2c1=O [temozolomide, reference compound] | – | – | – | – | – | – | – | – | – | – | – | Toxicity [1, 6]: 0/7; T − C [1, 6]: 3 days
Cl.NCCOc1c(-c2ccccc2)[nH]c(=O)c2cc(F)ccc12 [Compound 39, 4-(2-Amino-ethoxy)-7-fluoro-3-phenyl-2H-isoquinolin-1-one hydrochloride] | < 0.01 | < 0.25 | 4.38 | 3.32 | 0.28 | 0.06 | 72 | 37.9 | 1.7 | 11 | 1.06 | Max TGI (%) [4, 7]: 48%; Toxicity [4, 7]: 0/7; Toxicity [1, 8]: 0/7; T − C [1, 8]: 3 days; Interaction of the combination (T−C versus addition of single treatments) ([1]; compound (39) combined with temozolomide): strong synergism
NCCOc1c(-c2cccc(O)c2)[nH]c(=O)c2ccccc12 [Compound 32, 4-(2-Amino-ethoxy)-3-(3-hydroxy-phenyl)-2H-isoquinolin-1-one hydrochloride] | < 0.03 | < 0.25 | 0.45 | 0.79 | 0.28 | 0.2 | – | – | – | – | – | –
Cl.NCCOc1c(-c2cccc(Cl)c2)[nH]c(=O)c2ccccc12 [Compound 48, 4-(2-Amino-ethoxy)-3-(3-chloro-phenyl)-2H-isoquinolin-1-one hydrochloride] | < 0.01 | < 0.25 | 0.51 | 1.16 | 0.33 | 0.11 | 27 | 59.9 | 4.1 | 2.39 | 1.11 | –
O=C(c1cc(Cc2n[nH]c(=O)c3ccccc23)ccc1F)N1CCN(C(=O)C2CC2)CC1 [AZD2281] | – | – | – | – | – | – | – | – | – | – | – | Partial responses [5]: 4 out of 10
COc1cccc(-c2[nH]c(=O)c3ccccc3c2OCCN)c1.Cl [Compound 11, 4-(2-Amino-ethoxy)-3-(3-methoxy-phenyl)-2H-isoquinolin-1-one hydrochloride] | < 0.03 | < 0.25 | – | – | 0.35 | 0.18 | 64 | 120 | 2.6 | 2.94 | 1.01 | Max TGI (%) [4, 9]: 31%; Toxicity [4, 9]: 0/7
COc1ccc(-c2[nH]c(=O)c3cc(F)ccc3c2OCCN)cc1.Cl [Compound 25, 4-(2-Amino-ethoxy)-7-fluoro-3-(4-methoxy-phenyl)-2H-isoquinolin-1-one hydrochloride] | < 0.01 | < 0.25 | 0.61 | 2.29 | 0.21 | 0.06 | 71 | 42.2 | 2.3 | 8.32 | 2.17 | Max TGI (%) [4, 10]: 18%; Toxicity [4, 10]: 0/7
Cc1cccc2c(=O)[nH]c(-c3ccccc3)c(OCCN)c12 [Compound 49, 4-(2-Amino-ethoxy)-5-methyl-3-phenyl-2H-isoquinolin-1-one hydrochloride] | < 0.01 | < 0.25 | – | 0.97 | 0.2 | 0.09 | – | – | – | – | – | –

Further lines, with some results ahead:

Kd (PARP-1 FL) [µM] | DC50 (PARP-1 FL) [µM] | Kd (PARP-2 FL) [µM] | DC50 (PARP-2 FL) [µM] | DC50 (PARP-3 FL) [µM] | IC50 [2] [µM] | SMILES | F on AUC [3] [%] | clearance [3] [mL/min/kg] | Vd [3] [L/kg] | AUC [3] [µM·h] | half-life [3] [h] | also measured
0.04 | < 0.25 | 2.02 | 4.21 | 2.52 | 0.09 | COc1cccc(-c2[nH]c(=O)c3cc(F)ccc3c2OCCCN2CCCCC2)c1 [Compound 43, 7-Fluoro-3-(3-methoxy-phenyl)-4-(3-piperidin-1-yl-propoxy)-2H-isoquinolin-1-one hydrochloride] | – | – | – | – | – | –
– | < 0.25 | – | > 10 | 1.11 | 0.4 | O=c1[nH]c(-c2ccccc2)c(OCCCNCc2ccccc2)c2ccc(F)cc12 [Compound 87, 4-[3-(benzylamino)propoxy]-7-fluoro-3-phenylisoquinolin-1(2H)-one] | – | – | – | – | – | –
< 0.01 | < 0.25 | 3.61 | 5.99 | 0.37 | 0.06 | COc1cccc(-c2[nH]c(=O)c3cc(F)ccc3c2OCCN)c1 [Compound 46, 4-(2-Amino-ethoxy)-7-fluoro-3-(3-methoxy-phenyl)-2H-isoquinolin-1-one hydrochloride] | – | – | – | – | – | –
< 0.03 | < 0.25 | 0.25 | 0.58 | 0.34 | 0.41 | O=c1[nH]c(-c2cccc(O)c2)c(OCCCN2CCCCC2)c2ccccc12 [Compound 33, 3-(3-Hydroxy-phenyl)-4-(3-piperidin-1-yl-propoxy)-2H-isoquinolin-1-one] | 24 | 176 | 2.9 | 0.64 | 1.11 | –
< 0.03 | < 0.25 | – | 0.51 | 0.22 | 0.1 | NCCOc1c(-c2cccc(O)c2)[nH]c(=O)c2cc(F)ccc12 [Compound 47, 4-(2-Amino-ethoxy)-7-fluoro-3-(3-hydroxy-phenyl)-2H-isoquinolin-1-one] | – | – | – | – | – | –
< 0.03 | < 0.25 | 0.12 | 0.42 | 0.25 | 0.28 | O=c1[nH]c(-c2cccc(O)c2)c(OCCCN2CCCCC2)c2ccc(F)cc12 [Compound 45, 7-Fluoro-3-(3-hydroxy-phenyl)-4-(3-piperidin-1-yl-propoxy)-2H-isoquinolin-1-one hydrochloride] | – | – | – | – | – | –
< 0.03 | 0.32 | – | – | 0.37 | 0.06 | COc1ccc(-c2[nH]c(=O)c3ccccc3c2OCCN)cc1.Cl [Compound 24, 4-(2-Amino-ethoxy)-3-(4-methoxy-phenyl)-2H-isoquinolin-1-one hydrochloride] | 50 | 41.1 | 3 | 6.97 | 2.71 | –
< 0.03 | < 0.25 | 0.4 | 0.7 | 1.23 | 0.13 | O=c1[nH]c(-c2cccc(Cl)c2)c(OCCCN2CCCCC2)c2ccccc12 [Compound 44, 3-(3-Chloro-phenyl)-4-(3-piperidin-1-yl-propoxy)-2H-isoquinolin-1-one] | – | – | – | – | – | –
– | 1.59 | – | 5.85 | > 10 | 3.44 | CCN(CC)CCOc1c(-c2ccccc2)[nH]c(=O)c2cc(F)ccc12 [Compound 88, 4-[2-(diethylamino)ethoxy]-7-fluoro-3-phenylisoquinolin-1(2H)-one trifluoroacetate] | – | – | – | – | – | –
– | 0.4 | – | > 10 | 6.45 | 7.55 | CN1CCN(CCOc2c(-c3ccccc3)[nH]c(=O)c3cc(F)ccc23)CC1 [Compound 89, 7-fluoro-4-[2-(4-methylpiperazin-1-yl)ethoxy]-3-phenylisoquinolin-1(2H)-one trifluoroacetate] | – | – | – | – | – | –
– | < 0.25 | – | 3.86 | 1.11 | 0.57 | CN(C)CCOc1c(-c2ccccc2)[nH]c(=O)c2cc(F)ccc12 [Compound 84, 4-[2-(dimethylamino)ethoxy]-7-fluoro-3-phenylisoquinolin-1(2H)-one] | – | – | – | – | – | –
– | < 0.25 | – | 4.72 | 0.33 | 0.54 | NCCCOc1c(-c2ccccc2)[nH]c(=O)c2cc(F)ccc12 [Compound 86, 4-(3-aminopropoxy)-7-fluoro-3-phenylisoquinolin-1(2H)-one hydrochloride] | – | – | – | – | – | –

— US8993594B2, “Isoquinolin-1(2H)-one derivatives as PARP-1 inhibitors” (Nerviano Medical Sciences S.R.L., priority 2009, dated 2015)
